# Reference: US10889573B2, “Anthelmintic quinoline-3-carboxamide derivatives” (Bayer Animal Health GMBH, priority 2016, dated 2021)
# pEC50: −log10 of the molar value.
# Columns and labels:
# [1] = system: Dirofilaria immitis third-stage larvae; test: In vitro assay 4: Dirofilaria immitis (DIROIM L4), motility; conditions: 72 h, read-out: EC50 (reduction of motility)
# Cooperia curticei = conditions: Cooperia curticei, 120 h, read-out: activity (larval mortality)
# Procedure: In Vitro Assay 6: Cooperia curticei (COOPCU L3)
# Solvent: dimethyl sulfoxide
# Approximately 40 nematode larvae (Cooperia curticei) are transferred into a test tube containing the compound solution.
# After 5 days percentage of larval mortality is recorded. 100% efficacy means all larvae are killed; 0% efficacy means no larvae are killed.
# C. elegans Slo-1a = C. elegans Slo-1a (Caenorhabditis elegans, UniProt Q95V25); conditions: pE50 (negative decadic logarithm of EC50), CHO cells expressing C. elegans Slo-1a, voltage sensitive dye
# Sequence of C. elegans Slo-1a (Q95V25 whole entry): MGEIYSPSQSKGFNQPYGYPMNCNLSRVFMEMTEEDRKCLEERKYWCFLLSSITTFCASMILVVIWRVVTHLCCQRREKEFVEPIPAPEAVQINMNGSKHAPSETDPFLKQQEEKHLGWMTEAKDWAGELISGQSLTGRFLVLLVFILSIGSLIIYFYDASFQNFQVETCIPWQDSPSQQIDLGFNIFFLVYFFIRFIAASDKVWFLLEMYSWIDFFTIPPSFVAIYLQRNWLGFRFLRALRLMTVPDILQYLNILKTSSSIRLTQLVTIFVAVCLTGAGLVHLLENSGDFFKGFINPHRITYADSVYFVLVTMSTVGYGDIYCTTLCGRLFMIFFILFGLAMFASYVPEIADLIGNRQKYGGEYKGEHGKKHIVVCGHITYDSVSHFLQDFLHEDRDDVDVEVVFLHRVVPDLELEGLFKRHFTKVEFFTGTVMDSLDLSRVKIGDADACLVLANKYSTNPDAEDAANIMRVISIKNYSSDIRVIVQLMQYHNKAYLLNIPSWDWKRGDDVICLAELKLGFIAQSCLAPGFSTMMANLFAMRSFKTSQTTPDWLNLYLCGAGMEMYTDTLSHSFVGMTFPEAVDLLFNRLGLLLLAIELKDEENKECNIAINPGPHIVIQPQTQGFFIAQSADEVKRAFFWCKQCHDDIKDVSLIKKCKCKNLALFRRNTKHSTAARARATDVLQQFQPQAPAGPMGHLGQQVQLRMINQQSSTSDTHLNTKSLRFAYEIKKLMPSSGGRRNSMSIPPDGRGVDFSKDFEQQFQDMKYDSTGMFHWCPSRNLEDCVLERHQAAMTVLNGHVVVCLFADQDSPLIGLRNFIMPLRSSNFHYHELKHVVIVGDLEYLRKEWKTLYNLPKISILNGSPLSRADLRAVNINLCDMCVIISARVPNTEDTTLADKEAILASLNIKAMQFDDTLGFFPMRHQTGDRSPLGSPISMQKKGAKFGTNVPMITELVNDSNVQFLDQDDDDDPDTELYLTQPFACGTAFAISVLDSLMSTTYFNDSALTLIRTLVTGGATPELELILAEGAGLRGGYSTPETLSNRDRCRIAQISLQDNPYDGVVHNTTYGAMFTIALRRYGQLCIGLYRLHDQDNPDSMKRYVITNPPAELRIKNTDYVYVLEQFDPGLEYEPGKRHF
# Procedure: In Vitro Assay 1: C. elegans Slo-1a—Action at a Recombinant C. elegans Cell Line
# Cells were cultured at 37° C. and 5% CO2 in MEMalpha with Gutamax I (Invitrogen, Nr.: 32571), supplemented with 10% (v/v) heat inactivated fetal bovine serum (Invitrogen, Nr.: 10500), G418 (1 mg/ml, Invitrogen, Nr.: 10131). Cells were detached using Accutase (Sigma, Nr.: A6964).
# Membrane Potential Measurements
# Laboratory compound testing was performed on 384-well microtiter plates (MTPs, Greiner, Nr.: 781092). 8000 cells/well were plated onto 384-well MTPs and cultured for 20 to 24 hours at 37° C. and 5% CO2. After removal of the cell culture medium, the cells were washed once with tyrode (150 mM NaCl, 0.3 mM KCl, 2 mM CaCl2, 1 mM MgCl2, 0.8 mM NaH2PO4, 5 mM Glucose, 28 mM Hepes, pH 7.4) and then loaded with the voltage sensitive dye of the Membrane Potential Assay Kit diluted in tyrode for 1 h at room temperature.
# After starting the measurement of fluorescence using a FLIPR Tetra (Molecular Devices, Exc. 510-545 nm, Emm. 565-625 nm), test compounds were added followed by the addition of KCl tyrode (final assay concentration: 70 mM KCl, 2 mM CaCl2, 1 mM MgCl2, 0.8 mM NaH2PO4, 5 mM Glucose, 28 mM Hepes, pH 7.4, including the voltage sensitive dye). The measurement was completed after 7 minutes.
# The data were evaluated by using the ActivityBase XLfit software (IDBS) for curve fitting and calculation of the half-maximal effective concentration (EC50) and are reported as negative decadic logarithm (pE50).
# [2] = system: Nippostrongylus brasiliensis; test: In vitro assay 2: Nippostrongylus brasiliensis (NIPOBR), acetylcholine esterase readout; conditions: read-out: activity (reduction of AChE compared to negative control); for inhibition at 1 µg/mL: 1 μg/ml; for inhibition at 10 µg/mL: 10 μg/ml
# Procedure: In Vitro Assay 2: Nippostrongylus brasiliensis (NIPOBR)
# Adult Nippostrongylus brasiliensis were washed with saline buffer containing 100 U/ml penicillin, 0.1 mg/ml streptomycin and 2.5 μg/ml amphotericin B. Test compounds were dissolved in DMSO and worms were incubated in medium in a final concentration of 10 μg/ml (10 ppm) respectively 1 μg/ml (1 ppm). An aliquot of the medium was used to determine the acetylcholine esterase activity in comparison to a negative control. The principle of measuring acetylcholine esterase as readout for anthelmintic activity was described in Rapson et al (1986) and Rapson et al (1987).
# Haemonchus contortus = conditions: 120 h, read-out: activity (larval mortality)
# Procedure: In Vitro Assay 7: Haemonchus contortus (HAEMCO L3)
# Solvent: dimethyl sulfoxide
# Approximately 40 larvae of the red stomach worm (Haemonchus contortus) are transferred into a test tube containing compound solution.
# After 5 days the percentage of larval mortality is recorded. 100% efficacy means all larvae are killed, 0% efficacy means no larvae are killed.
# [3] = system: Dirofilaria immitis microfilariae; test: In vitro assay 3: Dirofilaria immitis microfilariae (DIROIM L1), motility; conditions: 72 h, read-out: EC50 (reduction of motility), 72 h incubation
smiles,measurement,setting,value
O=C(N[C@H]1CCOc2ccccc21)c1cnc2c(-c3cccc(Cl)c3Cl)cccc2c1N1CCC(O)C1 (mixture of isomers) [Example 194],EC50,[1],< 0.1 µg/mL
same,mortality at 4 ppm,Cooperia curticei,100%
same,mortality at 20 ppm,Cooperia curticei,100%
same,pEC50,C. elegans Slo-1a,> 8.50
same,inhibition at 1 µg/mL,[2],> 80%
same,mortality at 4 ppm,Haemonchus contortus,90%
same,mortality at 20 ppm,Haemonchus contortus,100%
same,EC50,[3],< 0.1 µg/mL
O=C(N[C@H]1CCOc2ccccc21)c1cnc2c(-c3cccc(F)c3Cl)cccc2c1N1CCC(O)C1 (mixture of isomers) [Example 258],EC50,[1],< 0.1 µg/mL
same,mortality at 4 ppm,Cooperia curticei,80%
same,pEC50,C. elegans Slo-1a,7.50 to 8.50
same,mortality at 20 ppm,Haemonchus contortus,90%
same,EC50,[3],< 0.1 µg/mL
O=C(N[C@H]1CCOc2ccccc21)c1cnc2c(-c3cccc(Cl)c3)cccc2c1N1CCC(O)C1 (mixture of isomers) [Example 260],EC50,[1],< 0.1 µg/mL
same,mortality at 4 ppm,Cooperia curticei,80%
same,mortality at 20 ppm,Cooperia curticei,90%
same,pEC50,C. elegans Slo-1a,> 8.50
same,inhibition at 1 µg/mL,[2],> 80%
same,mortality at 4 ppm,Haemonchus contortus,80%
same,mortality at 20 ppm,Haemonchus contortus,90%
same,EC50,[3],< 0.1 µg/mL
O=C(N[C@H]1CCOc2ccccc21)c1cnc2c(-c3cc(Cl)cc(C(F)(F)F)c3)cccc2c1N1CCC(O)C1 (mixture of isomers) [Example 271],EC50,[1],< 0.1 µg/mL
same,mortality at 4 ppm,Cooperia curticei,90%
same,mortality at 20 ppm,Cooperia curticei,90%
same,pEC50,C. elegans Slo-1a,> 8.50
same,inhibition at 1 µg/mL,[2],> 80%
same,mortality at 4 ppm,Haemonchus contortus,90%
same,mortality at 20 ppm,Haemonchus contortus,90%
same,EC50,[3],< 0.1 µg/mL
Cc1cc(Cl)cc(-c2cccc3c(N4CCC(O)C4)c(C(=O)N[C@H]4CCOc5ccccc54)cnc23)c1F (mixture of isomers) [Example 272],EC50,[1],< 0.1 µg/mL
same,mortality at 20 ppm,Cooperia curticei,80%
same,pEC50,C. elegans Slo-1a,> 8.50
same,inhibition at 1 µg/mL,[2],> 80%
same,mortality at 4 ppm,Haemonchus contortus,90%
same,mortality at 20 ppm,Haemonchus contortus,90%
same,EC50,[3],< 0.1 µg/mL
CN(C)c1c(C(=O)N[C@H]2CCOc3ccccc32)cnc2c(-c3cc(F)c(F)c(F)c3)cccc12 [Example 47],EC50,[1],< 0.1 µg/mL
same,mortality at 4 ppm,Cooperia curticei,80%
same,mortality at 20 ppm,Cooperia curticei,80%
same,pEC50,C. elegans Slo-1a,> 8.50
same,inhibition at 1 µg/mL,[2],> 80%
same,inhibition at 10 µg/mL,[2],> 80%
same,mortality at 4 ppm,Haemonchus contortus,90%
same,mortality at 20 ppm,Haemonchus contortus,100%
same,EC50,[3],< 0.1 µg/mL
CN(C)c1c(C(=O)N[C@H]2CCOc3ccccc32)cnc2c(-c3cccc(C(F)(F)F)c3F)cccc12 [Example 50],EC50,[1],< 0.1 µg/mL
same,mortality at 4 ppm,Cooperia curticei,80%
same,mortality at 20 ppm,Cooperia curticei,90%
same,pEC50,C. elegans Slo-1a,> 8.50
same,inhibition at 1 µg/mL,[2],> 80%
same,inhibition at 10 µg/mL,[2],> 80%
same,mortality at 4 ppm,Haemonchus contortus,90%
same,mortality at 20 ppm,Haemonchus contortus,100%
same,EC50,[3],< 0.1 µg/mL
O=C(N[C@H]1CCOc2ccccc21)c1cnc2c(-c3cc(Cl)ccc3F)c(F)ccc2c1N1CCOCC1 [Example 170],EC50,[1],< 0.1 µg/mL
same,mortality at 4 ppm,Cooperia curticei,100%
same,mortality at 20 ppm,Cooperia curticei,100%
same,pEC50,C. elegans Slo-1a,> 8.50
same,inhibition at 1 µg/mL,[2],> 80%
same,mortality at 4 ppm,Haemonchus contortus,100%
same,mortality at 20 ppm,Haemonchus contortus,100%
same,EC50,[3],< 0.1 µg/mL
CN(C)c1c(C(=O)N[C@H]2CCOc3ccccc32)cnc2c(-c3ccc(F)cc3Cl)c(F)ccc12 [Example 172],EC50,[1],< 0.1 µg/mL
same,mortality at 4 ppm,Cooperia curticei,100%
same,mortality at 20 ppm,Cooperia curticei,100%
same,pEC50,C. elegans Slo-1a,> 8.50
same,inhibition at 1 µg/mL,[2],> 80%
same,mortality at 4 ppm,Haemonchus contortus,80%
same,mortality at 20 ppm,Haemonchus contortus,100%
same,EC50,[3],< 0.1 µg/mL
O=C(N[C@H]1CCOc2ccccc21)c1cnc2c(-c3cccc4c3OCC4)cccc2c1N1CCOCC1 [Example 204],EC50,[1],< 0.1 µg/mL
same,mortality at 20 ppm,Cooperia curticei,100%
same,pEC50,C. elegans Slo-1a,7.50 to 8.50
same,inhibition at 1 µg/mL,[2],> 80%
same,mortality at 20 ppm,Haemonchus contortus,90%
same,EC50,[3],< 0.1 µg/mL
"O=C(N[C@H]1CCOc2ccccc21)c1cnc2c(-c3cc(Cl)cc(Cl)c3)cccc2c1C1CCOCC1 [Example 539, 8-(3,5-dichlorophenyl)-N-[(4S)-3,4-dihydro-2H-chromen-4-yl]-4-(tetrahydro-2H-pyran-4-yl)quinoline-3-carboxamide]",EC50,[1],< 0.1 µg/mL
same,mortality at 4 ppm,Cooperia curticei,100%
same,mortality at 20 ppm,Cooperia curticei,100%
same,pEC50,C. elegans Slo-1a,> 8.50
same,mortality at 4 ppm,Haemonchus contortus,100%
same,mortality at 20 ppm,Haemonchus contortus,100%
same,EC50,[3],< 0.1 µg/mL
